# Assay results as given in publication PMC10589655 (Proceedings of the National Academy of Sciences of the …, 2023).
# Where two headings read alike, the source gives them in different places.
# Key:
# [1] = target: T1, R7 (Peptoclostridium litorale, UniProt A0A069RI07); test: ITC; format: binding
# T1 sequence (A0A069RI07 38-318 limits assumed): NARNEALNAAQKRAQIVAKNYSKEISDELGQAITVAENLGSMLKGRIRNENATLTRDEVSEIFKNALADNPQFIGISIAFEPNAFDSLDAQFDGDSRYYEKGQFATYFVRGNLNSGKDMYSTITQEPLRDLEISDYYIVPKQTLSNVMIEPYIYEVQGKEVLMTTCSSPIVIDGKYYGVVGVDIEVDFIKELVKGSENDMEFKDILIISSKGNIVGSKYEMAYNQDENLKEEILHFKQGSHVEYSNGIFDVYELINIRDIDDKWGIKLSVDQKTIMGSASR
# [2] = target: R3; test: ITC; design: species or system Desulfovibrio inopinatus; settings: read-out: KD (uM) / Polyamine / Ethylenediamine; one binding site model
# [3] = target: T2, R8 (Azospirillum baldaniorum, UniProt A0A9P1JTZ6); test: ITC; settings: one binding site model
# T2 sequence (A0A9P1JTZ6 19-310): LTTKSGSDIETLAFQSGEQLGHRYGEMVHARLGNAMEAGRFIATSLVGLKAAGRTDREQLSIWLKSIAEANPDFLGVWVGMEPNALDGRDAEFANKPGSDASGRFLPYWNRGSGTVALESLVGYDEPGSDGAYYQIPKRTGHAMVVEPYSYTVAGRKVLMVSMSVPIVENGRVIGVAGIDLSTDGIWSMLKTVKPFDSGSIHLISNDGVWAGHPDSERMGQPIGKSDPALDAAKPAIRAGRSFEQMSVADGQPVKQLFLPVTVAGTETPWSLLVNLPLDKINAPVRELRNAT
# [4] = target: T3, R1 (Methanosarcina mazei, UniProt Q8PSW1); test: ITC; format: binding
# T3 sequence (Q8PSW1 32-312): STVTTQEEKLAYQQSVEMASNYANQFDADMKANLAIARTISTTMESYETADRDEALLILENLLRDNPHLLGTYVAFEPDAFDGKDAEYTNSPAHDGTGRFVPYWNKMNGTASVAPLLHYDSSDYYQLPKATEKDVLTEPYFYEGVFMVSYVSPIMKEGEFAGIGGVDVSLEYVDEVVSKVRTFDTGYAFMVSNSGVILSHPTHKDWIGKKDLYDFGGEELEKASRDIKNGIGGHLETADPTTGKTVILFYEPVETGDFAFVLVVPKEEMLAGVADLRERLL
# [5] = target: T4, R5 (Williamwhitmania taraxaci, UniProt A0A1G6J2J7); test: ITC; format: binding
# T4 sequence (A0A1G6J2J7 34-316 limits assumed): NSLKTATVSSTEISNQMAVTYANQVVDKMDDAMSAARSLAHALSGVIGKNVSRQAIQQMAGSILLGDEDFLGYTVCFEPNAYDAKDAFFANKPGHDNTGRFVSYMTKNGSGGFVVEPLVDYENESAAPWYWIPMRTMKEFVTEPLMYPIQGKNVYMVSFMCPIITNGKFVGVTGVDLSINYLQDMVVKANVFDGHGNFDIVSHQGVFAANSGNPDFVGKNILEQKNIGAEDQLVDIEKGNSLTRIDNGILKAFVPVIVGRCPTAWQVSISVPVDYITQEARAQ
# [6] = target: R6 (Oleiharenicola lentus, UniProt A0A4Q1C8G9); test: biochemical
# [7] = target: PacA-LBD (Pectobacterium atrosepticum, UniProt Q6D515); test: biochemical
# Sequence of PacA-LBD (Q6D515 1-271): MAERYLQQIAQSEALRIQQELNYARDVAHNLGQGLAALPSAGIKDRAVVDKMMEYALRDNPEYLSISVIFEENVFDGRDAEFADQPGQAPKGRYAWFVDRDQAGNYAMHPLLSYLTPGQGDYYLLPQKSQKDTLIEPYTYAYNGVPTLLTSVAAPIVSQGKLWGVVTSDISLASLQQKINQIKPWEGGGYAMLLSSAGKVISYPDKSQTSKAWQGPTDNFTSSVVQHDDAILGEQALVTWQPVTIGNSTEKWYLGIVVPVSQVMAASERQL
# Sequence of R6 (A0A4Q1C8G9 35-324 limits assumed): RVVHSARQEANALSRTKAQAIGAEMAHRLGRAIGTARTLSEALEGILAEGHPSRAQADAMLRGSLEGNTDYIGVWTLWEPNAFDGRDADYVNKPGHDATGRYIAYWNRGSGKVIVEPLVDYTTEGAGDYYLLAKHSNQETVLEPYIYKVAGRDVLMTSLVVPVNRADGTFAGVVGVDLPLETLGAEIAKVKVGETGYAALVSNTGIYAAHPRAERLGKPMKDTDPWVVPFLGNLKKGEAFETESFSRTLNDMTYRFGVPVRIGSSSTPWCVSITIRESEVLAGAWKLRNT
SMILES,Kd [1] [µM],Kd [4] [µM],Kd [5] [µM],other results
NCCN [Ethylenediamine],12.3 ± 1,,,Kd [2]: 29.6 ± 3 µM
CNC [Dimethylamine],5.3 ± 0.4,0.53 ± 0.02,,Kd ([3]; read-out: KD (uM) / Methyl-/ethyl-/ethanol amines^* / Dimethylamine): 5.8 ± 1 µM
CN [Methylamine],16.6 ± 2,35.1 ± 3,,Kd ([3]; read-out: KD (uM) / Methyl-/ethyl-/ethanol amines^* / Methylamine): 25.1 ± 3 µM
CN(C)C [Trimethylamine],,10 ± 0.4,1.2 ± 0.1,Kd [6]: 151 ± 4 µM; Kd ([3]; read-out: KD (uM) / Methyl-/ethyl-/ethanol amines^* / Trimethylamine): 24 ± 4 µM; Kd [7]: 113 ± 6 µM
C[N+](C)(C)CCO [Choline],,,3.6 ± 0.1,Kd ([3]; read-out: KD (uM) / Quaternary amines / Choline): 183 ± 4 µM
